From ChEMBL document CHEMBL1201862, “PubChem BioAssay data set” (2004)
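Compound exposure: 48 hours, 5 concentrations, 96-well plates. Abbreviation: GI50, concentration required for 50% inhibition of growth.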 Active and inactive are the calls of the source. Cut-off read from the data, not from the text of the source: active = GI50 up to about 1.1 µM and inactive = higher.

How the values were obtained:
Assay in all cases: NCI anticancer screen, dose series, 48 h
786-0 = test system: 786-0
A549 = test system: A549
ACHN = test system: ACHN
CAKI-1 = test system: CAKI-1
CCRF-CEM = test system: CCRF-CEM
COLO 205 = test system: COLO 205
DLD-1 = test system: DLD-1
DMS-114 = test system: DMS-114
DMS-273 = test system: DMS-273
HCC 2998 = test system: HCC 2998
HCT-116 = test system: HCT-116
HCT-15 = test system: HCT-15
HL-60 = test system: HL-60
HOP-62 = test system: HOP-62
HOP-92 = test system: HOP-92
HT-29 = test system: HT-29
IGROV-1 = test system: IGROV-1
K562 = test system: K562
KM-20L2 = test system: KM-20L2
KM12 = test system: KM12
LOX IMVI = test system: LOX IMVI
LXFL 529 = test system: LXFL 529
M14 = test system: M14
M19-MEL = test system: M19-MEL
MOLT-4 = test system: MOLT-4
Malme-3M = test system: Malme-3M
NCI-H226 = test system: NCI-H226
NCI-H23 = test system: NCI-H23
NCI-H460 = test system: NCI-H460
NCI-H522 = test system: NCI-H522
OVCAR-3 = test system: OVCAR-3
OVCAR-4 = test system: OVCAR-4
OVCAR-5 = test system: OVCAR-5
OVCAR-8 = test system: OVCAR-8
RPMI-8226 = test system: RPMI-8226
RXF 393 = test system: RXF 393
SF-268 = test system: SF-268
SF-295 = test system: SF-295
SF-539 = test system: SF-539
SK-MEL-28 = test system: SK-MEL-28
SK-MEL-5 = test system: SK-MEL-5
SK-OV-3 = test system: SK-OV-3
SN12C = test system: SN12C
SNB-19 = test system: SNB-19
SNB-75 = test system: SNB-75
SNB-78 = test system: SNB-78
SR = test system: SR
SW-620 = test system: SW-620
TK-10 = test system: TK-10
U-251 = test system: U-251
UACC-257 = test system: UACC-257
UACC-62 = test system: UACC-62
UO-31 = test system: UO-31
XF498 = test system: XF498
A498 = test system: A498
EKVX = test system: EKVX
SK-MEL-2 = test system: SK-MEL-2

CC(=O)CC(=O)ON(C)C(=O)Cc1ccccc1
GI50 (786-0): > 100 µM (inactive)
GI50 (A549): > 100 µM (inactive)
GI50 (ACHN): > 100 µM (inactive)
GI50 (CAKI-1): > 100 µM (inactive)
GI50 (CCRF-CEM): > 100 µM (inactive)
GI50 (COLO 205): > 100 µM (inactive)
GI50 (DLD-1): > 100 µM (inactive)
GI50 (DMS-114): > 100 µM (inactive)
GI50 (DMS-273): > 100 µM (inactive)
GI50 (HCC 2998): > 100 µM (inactive)
GI50 (HCT-116): > 100 µM (inactive)
GI50 (HCT-15): > 100 µM
GI50 (HL-60): > 100 µM (inactive)
GI50 (HOP-62): > 100 µM (inactive)
GI50 (HOP-92): > 100 µM (inactive)
GI50 (HT-29): > 100 µM (inactive)
GI50 (IGROV-1): > 100 µM (inactive)
GI50 (K562): > 100 µM (inactive)
GI50 (KM-20L2): > 100 µM (inactive)
GI50 (KM12): > 100 µM (inactive)
GI50 (LOX IMVI): > 100 µM (inactive)
GI50 (LXFL 529): > 100 µM (inactive)
GI50 (M14): > 100 µM (inactive)
GI50 (M19-MEL): > 100 µM (inactive)
GI50 (MOLT-4): > 100 µM (inactive)
GI50 (Malme-3M): > 100 µM (inactive)
GI50 (NCI-H226): > 100 µM (inactive)
GI50 (NCI-H23): > 100 µM (inactive)
GI50 (NCI-H460): > 100 µM (inactive)
GI50 (NCI-H522): > 100 µM (inactive)
GI50 (OVCAR-3): > 100 µM (inactive)
GI50 (OVCAR-4): > 100 µM (inactive)
GI50 (OVCAR-5): > 100 µM (inactive)
GI50 (OVCAR-8): > 100 µM (inactive)
GI50 (RPMI-8226): > 100 µM (inactive)
GI50 (RXF 393): > 100 µM (inactive)
GI50 (SF-268): > 100 µM (inactive)
GI50 (SF-295): > 100 µM (inactive)
GI50 (SF-539): > 100 µM (inactive)
GI50 (SK-MEL-28): > 100 µM (inactive)
GI50 (SK-MEL-5): > 100 µM (inactive)
GI50 (SK-OV-3): > 100 µM (inactive)
GI50 (SN12C): > 100 µM (inactive)
GI50 (SNB-19): > 100 µM (inactive)
GI50 (SNB-75): > 100 µM (inactive)
GI50 (SNB-78): > 100 µM (inactive)
GI50 (SR): > 100 µM (inactive)
GI50 (SW-620): > 100 µM (inactive)
GI50 (TK-10): > 100 µM (inactive)
GI50 (U-251): > 100 µM (inactive)
GI50 (UACC-257): > 100 µM (inactive)
GI50 (UACC-62): > 100 µM (inactive)
GI50 (UO-31): > 100 µM (inactive)
GI50 (XF498): > 100 µM (inactive)

O=C1c2cccc(O)c2C(=O)c2cccc(O)c21 [ANTHRARUFIN]
GI50 (786-0): > 100 µM (inactive)
GI50 (A498): > 100 µM (inactive)
GI50 (A549): > 100 µM (inactive)
GI50 (ACHN): > 100 µM (inactive)
GI50 (CAKI-1): > 100 µM (inactive)
GI50 (CCRF-CEM): > 100 µM (inactive)
GI50 (COLO 205): > 100 µM (inactive)
GI50 (DLD-1): > 100 µM (inactive)
GI50 (DMS-273): > 100 µM (inactive)
GI50 (EKVX): > 100 µM (inactive)
GI50 (HCC 2998): > 100 µM (inactive)
GI50 (HCT-116): > 100 µM (inactive)
GI50 (HCT-15): > 100 µM
GI50 (HOP-62): > 100 µM (inactive)
GI50 (HOP-92): > 100 µM (inactive)
GI50 (HT-29): > 100 µM (inactive)
GI50 (IGROV-1): > 100 µM (inactive)
GI50 (K562): > 100 µM (inactive)
GI50 (KM12): > 100 µM (inactive)
GI50 (LOX IMVI): > 100 µM (inactive)
GI50 (LXFL 529): > 100 µM (inactive)
GI50 (M14): > 100 µM (inactive)
GI50 (M19-MEL): > 100 µM (inactive)
GI50 (MOLT-4): > 100 µM (inactive)
GI50 (NCI-H226): > 100 µM (inactive)
GI50 (NCI-H23): > 100 µM (inactive)
GI50 (NCI-H460): > 100 µM (inactive)
GI50 (NCI-H522): > 100 µM (inactive)
GI50 (OVCAR-3): > 100 µM (inactive)
GI50 (OVCAR-4): > 100 µM (inactive)
GI50 (OVCAR-5): > 100 µM (inactive)
GI50 (OVCAR-8): > 100 µM (inactive)
GI50 (RPMI-8226): > 100 µM (inactive)
GI50 (RXF 393): > 100 µM (inactive)
GI50 (SF-268): > 100 µM (inactive)
GI50 (SF-295): > 100 µM (inactive)
GI50 (SF-539): > 100 µM (inactive)
GI50 (SK-MEL-2): > 100 µM (inactive)
GI50 (SN12C): > 100 µM (inactive)
GI50 (SNB-19): > 100 µM (inactive)
GI50 (SNB-75): > 100 µM (inactive)
GI50 (SNB-78): > 100 µM (inactive)
GI50 (SW-620): > 100 µM (inactive)
GI50 (TK-10): > 100 µM (inactive)
GI50 (U-251): > 100 µM (inactive)
GI50 (UACC-257): > 100 µM (inactive)
GI50 (UACC-62): > 100 µM (inactive)
GI50 (UO-31): > 100 µM (inactive)
GI50 (XF498): > 100 µM (inactive)
